Assay type in all cases: binding
For assay [1], the target named is T1, SARS-CoV-2 NSP3 Mac1 (Severe acute respiratory syndrome coronavirus 2, UniProt P0DTD1). As to the kind of experiment: biochemical. The following applies: for IC50: read-out: IC50; for Ki: Ki estimation from HTRF-derived IC50, Cheng-Prusoff, peptide 400nM, Kd 2.68µM, read-out: Ki***.
Assay [2] addresses T1, SARS-CoV-2 NSP3 Mac1. The following applies: for Refined occupancy: ligand occupancy after refinement (phenix.refine).
The target of assay [3] is T1, SARS-CoV-2 NSP3 Mac1. The arrangement: contains a conserved macrodomain enzyme (Mac1). The following applies: for DSF max dTma: maximal thermal upshift vs DMSO control. In outline: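 Differential scanning fluorimetry using 5 µM Fluorescent Yellow dye in place of SYPRO Orange. Compounds run in triplicate at seven two-fold dilutions from 1,000 or 100 μM, with ΔTma taken against a DMSO control in the same plate region. Dose-response significance assessed by Spearman's coefficient between concentration and ΔTma.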

Setting [4] is: PanDDA event map, 1 minus background density correction, crystal soaking of Mac1.
The mark [5] stands for this setting: true hit = binding in crystallographic soaking or the HTRF-based binding assay.
Where [6] appears, read: HTRF ADPr-peptide displacement from SARS-CoV-2 Mac1.
The mark [7] stands for this setting: PanDDA event map 1-BDC, crystal soak, Compound_concentration 100 mM, PanDDA run dmso_34 or nohits_35 per dataset.
Where [8] appears, read: crystal soak, Compound_concentration 100 mM, Echo dispense 40 nl, PanDDA run dmso_34 or nohits_35 per dataset.
Setting [9] is: overall hit flag: binding in crystallographic soaking or the HTRF-based binding assay.

Each structure is given as a SMILES string. Like-named read-outs stand apart in the source and are kept apart here.

Take `O=C(O)C1(F)CN(c2ncnc3[nH]c4cc(Br)ccc4c23)CC12CCC2` (stereo not drawn) [LL123_0006]: on SARS-CoV-2 NSP3 Mac1 [1] (HTRF), the IC50 was found to be 92.9 µM. For the same molecule, on SARS-CoV-2 NSP3 Mac1 [1], the inhibition constant Ki was 80.8 µM. The 1-BDC at SARS-CoV-2 NSP3 Mac1 [2] (PanDDA 1-BDC of the event, compound stock 100 mM, Echo dispense volume 40 nl) amounted to 0.08; at SARS-CoV-2 NSP3 Mac1 [2] (PanDDA 1-BDC of the event, compound stock 100 mM, Echo dispense volume 80 nl) it was 0.15. The “1-BDC (PanDDA)” value on SARS-CoV-2 NSP3 Mac1 [2] (setting [4]) came to 0.08. Further, the “PanDDA hit?” value at SARS-CoV-2 NSP3 Mac1 [2] (crystal soak, compound stock 100 mM, Echo dispense volume 40 nl) is reported as “TRUE”; at SARS-CoV-2 NSP3 Mac1 [2] (crystal soak, compound stock 100 mM, Echo dispense volume 80 nl), “TRUE”. The “Modeled?” value on SARS-CoV-2 NSP3 Mac1 [2] (ligand modeled in structure, compound stock 100 mM, Echo dispense volume 40 nl) is given as “TRUE”. This molecule also showed a Refined occupancy at SARS-CoV-2 NSP3 Mac1 [2] (crystal soaking of Mac1) of 16. Further, at SARS-CoV-2 NSP3 Mac1 [2] (setting [5]), the “HIT*” value was “Y”.

`CC1(C)CN(c2ncnc3[nH]c4ccccc4c23)CC(CC(=O)O)O1` (stereo not drawn) [Z2215]: the half-maximal inhibitory concentration (IC50) at SARS-CoV-2 NSP3 Mac1 [1] (HTRF) turned out to be 116 µM. In addition, the Ki on SARS-CoV-2 NSP3 Mac1 [1] is 101 µM. For the same molecule, the “HIT*” value at SARS-CoV-2 NSP3 Mac1 [2] (setting [5]) is on record as “Y”.

Turning to `O=C(Nc1ccc(C(=O)NC2c3cccc(O)c3CC2C(=O)O)c2scnc12)NC1CC1` (stereo not drawn) [Z8539_0065], the IC50 at SARS-CoV-2 NSP3 Mac1 [1] (setting [6]) came to 3.3 µM; at SARS-CoV-2 NSP3 Mac1 [1] (HTRF) it was 4.8 µM. The Ki at SARS-CoV-2 NSP3 Mac1 [1] was 4.2 µM. At SARS-CoV-2 NSP3 Mac1 [2] (setting [7]), this molecule returned a 1-BDC of 0.09. Also, the “1-BDC (PanDDA)” value on SARS-CoV-2 NSP3 Mac1 [2] (setting [4]) is 0.09. The “PanDDA hit?” value at SARS-CoV-2 NSP3 Mac1 [2] (setting [8]) is “TRUE”. Moreover, at SARS-CoV-2 NSP3 Mac1 [2] (ligand modeled in this dataset, crystal soak, Compound_concentration 100 mM), the “Modeled?” value is “TRUE”. This molecule showed a Refined occupancy at SARS-CoV-2 NSP3 Mac1 [2] (crystal soaking of Mac1) of 18. In addition, the “HIT*” value at SARS-CoV-2 NSP3 Mac1 [2] (setting [5]) is recorded as “Y”.

Turning to `O=C(Nc1ccc(C(=O)NC2c3cccc(O)c3CC2C(=O)O)cn1)NC1CC1` (stereo not drawn) [Z8539_0054], the IC50 at SARS-CoV-2 NSP3 Mac1 [1] (HTRF) turned out to be 16 µM. The Ki on SARS-CoV-2 NSP3 Mac1 [1] is 13.9 µM. The “HIT*” value at SARS-CoV-2 NSP3 Mac1 [2] (setting [5]) was “Y”.

Consider `O=C(O)CC1CN(c2ncnc3[nH]c4ccccc4c23)CC(C(F)(F)F)O1` (stereo not drawn) [Z1229], for which the IC50 at SARS-CoV-2 NSP3 Mac1 [1] (HTRF) was 119 µM. For the same molecule, the Ki on SARS-CoV-2 NSP3 Mac1 [1] was 104 µM. Also, the “HIT*” value on SARS-CoV-2 NSP3 Mac1 [2] (setting [5]) is listed as “Y”.

Regarding `O=C(Nc1ccc(C(=O)NC2c3cccc(O)c3CC2C(=O)O)c(Cl)c1)NC1CC1` (stereo not drawn) [Z8539_0055], the concentration for half-maximal inhibition (IC50) at SARS-CoV-2 NSP3 Mac1 [1] (setting [6]) was 9.6 µM; at SARS-CoV-2 NSP3 Mac1 [1] (HTRF), 10 µM. Also, on SARS-CoV-2 NSP3 Mac1 [1], the inhibitory constant (Ki) was 8.7 µM. Besides, the figures for the 1-BDC at SARS-CoV-2 NSP3 Mac1 [2] (setting [7]) and at SARS-CoV-2 NSP3 Mac1 [2] (setting [4]) were 0.22 and 0.13, respectively. Moreover, the “PanDDA hit?” value on SARS-CoV-2 NSP3 Mac1 [2] (setting [8]) is recorded as “TRUE”. At SARS-CoV-2 NSP3 Mac1 [2] (ligand modeled from this dataset, compound concentration 100 mM), the “Modeled?” value is given as “TRUE”. The molecule also showed a Refined occupancy on SARS-CoV-2 NSP3 Mac1 [2] (crystal soaking of Mac1) of 26. For the same molecule, the “HIT*” value on SARS-CoV-2 NSP3 Mac1 [2] (setting [5]) is recorded as “Y”.

On to `O=C(O)CC1CN(c2ncnc3[nH]c4cc(Br)ccc4c23)CCO1` (stereo not drawn) [LL114_0014], for which the IC50 on SARS-CoV-2 NSP3 Mac1 [1] (HTRF) is 25.9 µM. The inhibitory constant (Ki) at SARS-CoV-2 NSP3 Mac1 [1] is 22.5 µM. In addition, the “HIT*” value at SARS-CoV-2 NSP3 Mac1 [2] (setting [5]) is “Y”.

For `Nc1nc(N)c2ncn(Cc3csc(Cl)n3)c2n1` [Z8572], the “HIT*” value on SARS-CoV-2 NSP3 Mac1 [2] (setting [9]) is “Y”. At SARS-CoV-2 NSP3 Mac1 [3], the “DSF max dTma” value turned out to be 1.1 °C.

Consider `CN(Cc1nnc2c(=O)[nH]ccn12)c1ccc2nccnc2n1` [ZINC001472868186], for which the 1-BDC turned out to be 0.15 at SARS-CoV-2 NSP3 Mac1 [2] (setting [4]) and 0.15 at SARS-CoV-2 NSP3 Mac1 [2] (PanDDA event map, crystal soak, Compound_concentration 30 mM, PanDDA run dmso_34). On SARS-CoV-2 NSP3 Mac1 [2] (crystal soak, Compound_concentration 30 mM, Echo dispense 40 nl, PanDDA run dmso_34), the “PanDDA hit?” value was “TRUE”. At SARS-CoV-2 NSP3 Mac1 [2] (ligand modeled in structure, crystal soak, Compound_concentration 30 mM), the “Modeled?” value was “TRUE”. The Refined occupancy at SARS-CoV-2 NSP3 Mac1 [2] (crystal soaking of Mac1) is 30. Further, at SARS-CoV-2 NSP3 Mac1 [2] (setting [9]), the “HIT*” value is recorded as “Y”. Also, the “Spearman est (compound concentration vs apparent Tm)” value on SARS-CoV-2 NSP3 Mac1 [3] (DSF dose responsiveness, 1 µM nsp3 mac1, adj p given) is reported as 0.79. Also, the “DSF max dTma” value at SARS-CoV-2 NSP3 Mac1 [3] came out at 0.81 °C.

In the case of `CN(C(=O)c1ccc(NC(=O)NC2CC2)cc1)C1c2cccc(O)c2CC1C(=O)O` (stereo not drawn) [Z8539_0056], the “binding to Mac1 in the HTRF assay, result in words” value on SARS-CoV-2 NSP3 Mac1 [1] was “inactive”.

As a reminder, the IC50 is the midpoint of a concentration-inhibition curve. One may read the Ki as the dissociation constant of the complex between target and ligand, obtained from inhibition or displacement.
